Key:
[1] = cited from earlier work
JAK2 = JAK2 (Homo sapiens, UniProt O60674); test: HotSpot 10-dose dose-response kinase assay: JAK2; format: biochemical; conditions: read-out: Dose-response IC50 JAK2; 10-dose dose-response, 1 μM ATP
JAK3 = JAK3 (Homo sapiens, UniProt P52333); test: HotSpot 10-dose dose-response kinase assay: JAK3; format: biochemical; conditions: read-out: Dose-response IC50 JAK3; 10-dose dose-response, 1 μM ATP
BRAF = BRAF (Homo sapiens, UniProt P15056); test: HotSpot 10-dose dose-response kinase assay: BRAF; format: biochemical; conditions: read-out: Dose-response IC50 BRAF; 10-dose dose-response, 1 μM ATP
EGFR (L858R, T790M) = EGFR (L858R, T790M) (Homo sapiens, UniProt P00533, L858R/T790M); test: HotSpot 10-dose dose-response kinase assay: EGFR; format: biochemical; conditions: read-out: Dose-response IC50 EGFR (L858R, T790M); 10-dose dose-response, 1 μM ATP
EGFR (T790M) = EGFR (T790M) (Homo sapiens, UniProt P00533, T790M); test: HotSpot 10-dose dose-response kinase assay: EGFR; format: biochemical; conditions: read-out: Dose-response IC50 EGFR (T790M); 10-dose dose-response, 1 μM ATP
TYK2 = TYK2 (Homo sapiens, UniProt P29597); test: 369-kinase HotSpot kinome screen: TYK2; format: biochemical; conditions: read-out: Tyk2 inhibition, from kinome screen
TYK2, sequence (P29597 whole entry): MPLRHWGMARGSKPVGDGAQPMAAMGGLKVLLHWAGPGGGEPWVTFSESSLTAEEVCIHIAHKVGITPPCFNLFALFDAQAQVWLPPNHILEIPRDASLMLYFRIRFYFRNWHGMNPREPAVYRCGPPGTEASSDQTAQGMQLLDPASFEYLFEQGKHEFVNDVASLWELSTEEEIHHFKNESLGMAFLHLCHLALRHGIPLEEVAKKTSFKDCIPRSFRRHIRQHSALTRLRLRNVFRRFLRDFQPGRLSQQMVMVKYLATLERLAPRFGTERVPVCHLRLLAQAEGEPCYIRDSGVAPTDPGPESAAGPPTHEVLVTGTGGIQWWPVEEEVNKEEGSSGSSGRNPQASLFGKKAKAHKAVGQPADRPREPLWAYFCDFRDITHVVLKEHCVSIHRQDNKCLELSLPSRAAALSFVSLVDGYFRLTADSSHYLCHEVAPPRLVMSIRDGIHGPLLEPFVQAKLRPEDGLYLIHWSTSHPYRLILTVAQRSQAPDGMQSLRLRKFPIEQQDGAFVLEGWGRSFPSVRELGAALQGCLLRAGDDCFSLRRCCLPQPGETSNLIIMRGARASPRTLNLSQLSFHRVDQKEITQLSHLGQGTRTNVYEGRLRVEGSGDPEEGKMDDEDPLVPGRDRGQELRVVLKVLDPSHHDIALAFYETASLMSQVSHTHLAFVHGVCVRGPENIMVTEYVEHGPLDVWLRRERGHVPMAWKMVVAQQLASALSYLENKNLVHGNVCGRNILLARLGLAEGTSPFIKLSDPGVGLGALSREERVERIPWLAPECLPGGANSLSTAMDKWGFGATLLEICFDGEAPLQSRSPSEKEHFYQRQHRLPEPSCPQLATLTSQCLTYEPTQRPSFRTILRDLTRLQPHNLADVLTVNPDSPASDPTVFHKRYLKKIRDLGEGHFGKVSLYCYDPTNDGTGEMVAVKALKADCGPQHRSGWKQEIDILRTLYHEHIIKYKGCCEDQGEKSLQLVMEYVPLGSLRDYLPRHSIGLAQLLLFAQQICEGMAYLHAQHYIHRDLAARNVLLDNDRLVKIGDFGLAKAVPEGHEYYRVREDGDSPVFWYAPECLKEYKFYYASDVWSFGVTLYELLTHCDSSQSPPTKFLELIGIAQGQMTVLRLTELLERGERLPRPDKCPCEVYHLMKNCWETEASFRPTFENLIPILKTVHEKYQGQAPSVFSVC

JAK1 = JAK1 (Homo sapiens, UniProt P23458); test: HotSpot 10-dose dose-response kinase assay: JAK1; format: biochemical; conditions: read-out: Dose-response IC50 JAK1; 10-dose dose-response, 1 μM ATP
JAK1, sequence (P23458 whole entry): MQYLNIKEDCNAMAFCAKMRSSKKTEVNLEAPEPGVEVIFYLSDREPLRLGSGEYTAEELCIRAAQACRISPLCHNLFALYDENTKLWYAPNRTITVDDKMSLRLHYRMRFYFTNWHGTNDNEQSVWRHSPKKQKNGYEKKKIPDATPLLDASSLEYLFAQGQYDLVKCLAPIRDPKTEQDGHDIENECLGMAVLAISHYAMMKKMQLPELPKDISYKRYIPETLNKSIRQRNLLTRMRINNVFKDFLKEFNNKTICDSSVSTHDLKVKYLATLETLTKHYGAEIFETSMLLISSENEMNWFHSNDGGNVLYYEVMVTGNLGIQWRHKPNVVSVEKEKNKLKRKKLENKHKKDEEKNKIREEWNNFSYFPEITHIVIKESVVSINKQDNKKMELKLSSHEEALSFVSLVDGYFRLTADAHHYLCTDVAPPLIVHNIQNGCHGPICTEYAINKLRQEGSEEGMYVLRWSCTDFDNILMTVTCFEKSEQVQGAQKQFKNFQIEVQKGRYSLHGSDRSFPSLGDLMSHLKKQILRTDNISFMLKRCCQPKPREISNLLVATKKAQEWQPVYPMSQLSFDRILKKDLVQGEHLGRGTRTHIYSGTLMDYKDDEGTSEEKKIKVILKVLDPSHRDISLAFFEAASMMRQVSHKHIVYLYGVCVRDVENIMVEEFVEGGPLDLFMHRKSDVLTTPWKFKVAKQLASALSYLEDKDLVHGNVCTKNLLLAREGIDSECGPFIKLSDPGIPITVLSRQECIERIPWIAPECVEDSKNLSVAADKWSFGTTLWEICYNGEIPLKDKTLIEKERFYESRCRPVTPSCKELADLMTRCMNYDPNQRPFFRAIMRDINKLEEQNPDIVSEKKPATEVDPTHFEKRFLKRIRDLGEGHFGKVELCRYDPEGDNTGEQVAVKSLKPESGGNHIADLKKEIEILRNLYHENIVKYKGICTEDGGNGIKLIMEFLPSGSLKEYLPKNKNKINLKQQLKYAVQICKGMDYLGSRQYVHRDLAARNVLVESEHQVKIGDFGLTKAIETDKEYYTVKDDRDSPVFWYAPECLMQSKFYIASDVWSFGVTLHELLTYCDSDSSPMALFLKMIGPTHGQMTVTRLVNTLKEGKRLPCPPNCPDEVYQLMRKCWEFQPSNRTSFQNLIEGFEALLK

EGFR (L858R) = EGFR (L858R) (Homo sapiens, UniProt P00533, L858R); test: HotSpot 10-dose dose-response kinase assay: EGFR; format: biochemical; conditions: read-out: Dose-response IC50 EGFR (L858R); 10-dose dose-response, 1 μM ATP
ANT = conditions: read-out: IC50 ANT inhibition; cited from earlier work
BRAF (V599E) = BRAF (V599E) (Homo sapiens, UniProt P15056, V600E); test: HotSpot 10-dose dose-response kinase assay: BRAF; format: biochemical; conditions: read-out: Dose-response IC50 BRAF (V599E); 10-dose dose-response, 1 μM ATP
BRAF (V599E), sequence (P15056 416-766 V600E limits assumed): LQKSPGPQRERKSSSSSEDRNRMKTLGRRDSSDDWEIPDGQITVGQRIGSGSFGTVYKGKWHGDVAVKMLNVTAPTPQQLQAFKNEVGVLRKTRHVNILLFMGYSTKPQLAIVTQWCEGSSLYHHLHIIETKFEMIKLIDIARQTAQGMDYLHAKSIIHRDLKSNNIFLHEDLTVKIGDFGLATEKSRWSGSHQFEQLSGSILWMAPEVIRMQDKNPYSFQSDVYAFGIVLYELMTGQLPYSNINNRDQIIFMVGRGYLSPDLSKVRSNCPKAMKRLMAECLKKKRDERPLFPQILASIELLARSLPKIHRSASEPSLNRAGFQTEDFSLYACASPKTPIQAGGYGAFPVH

PDGFRa = PDGFRa (Homo sapiens, UniProt P16234); test: HotSpot 10-dose dose-response kinase assay: PDGFRa; format: biochemical; conditions: read-out: Dose-response IC50 PDGFRa; 10-dose dose-response, 1 μM ATP
EGFR (d746–750) = EGFR (d746–750) (Homo sapiens, UniProt P00533, DEL746-750); test: HotSpot 10-dose dose-response kinase assay: EGFR; format: biochemical; conditions: read-out: Dose-response IC50 EGFR (d746–750); 10-dose dose-response, 1 μM ATP
PKCepsilon = PKCepsilon (Homo sapiens, UniProt Q02156); test: HotSpot 10-dose dose-response kinase assay: PKCepsilon; format: biochemical; conditions: read-out: Dose-response IC50 PKCepsilon; 10-dose dose-response, 1 μM ATP
DDR2 = DDR2 (Homo sapiens, UniProt Q16832); test: HotSpot 10-dose dose-response kinase assay: DDR2; format: biochemical; conditions: read-out: Dose-response IC50 DDR2; 10-dose dose-response, 1 μM ATP
EGFR (G719S) = EGFR (G719S) (Homo sapiens, UniProt P00533, G719S); test: HotSpot 10-dose dose-response kinase assay: EGFR; format: biochemical; conditions: read-out: Dose-response IC50 EGFR (G719S); 10-dose dose-response, 1 μM ATP
RET = RET (Homo sapiens, UniProt P07949); test: HotSpot 10-dose dose-response kinase assay: RET; format: biochemical; conditions: read-out: Dose-response IC50 RET; 10-dose dose-response, 1 μM ATP
RET, sequence (P07949 29-1114): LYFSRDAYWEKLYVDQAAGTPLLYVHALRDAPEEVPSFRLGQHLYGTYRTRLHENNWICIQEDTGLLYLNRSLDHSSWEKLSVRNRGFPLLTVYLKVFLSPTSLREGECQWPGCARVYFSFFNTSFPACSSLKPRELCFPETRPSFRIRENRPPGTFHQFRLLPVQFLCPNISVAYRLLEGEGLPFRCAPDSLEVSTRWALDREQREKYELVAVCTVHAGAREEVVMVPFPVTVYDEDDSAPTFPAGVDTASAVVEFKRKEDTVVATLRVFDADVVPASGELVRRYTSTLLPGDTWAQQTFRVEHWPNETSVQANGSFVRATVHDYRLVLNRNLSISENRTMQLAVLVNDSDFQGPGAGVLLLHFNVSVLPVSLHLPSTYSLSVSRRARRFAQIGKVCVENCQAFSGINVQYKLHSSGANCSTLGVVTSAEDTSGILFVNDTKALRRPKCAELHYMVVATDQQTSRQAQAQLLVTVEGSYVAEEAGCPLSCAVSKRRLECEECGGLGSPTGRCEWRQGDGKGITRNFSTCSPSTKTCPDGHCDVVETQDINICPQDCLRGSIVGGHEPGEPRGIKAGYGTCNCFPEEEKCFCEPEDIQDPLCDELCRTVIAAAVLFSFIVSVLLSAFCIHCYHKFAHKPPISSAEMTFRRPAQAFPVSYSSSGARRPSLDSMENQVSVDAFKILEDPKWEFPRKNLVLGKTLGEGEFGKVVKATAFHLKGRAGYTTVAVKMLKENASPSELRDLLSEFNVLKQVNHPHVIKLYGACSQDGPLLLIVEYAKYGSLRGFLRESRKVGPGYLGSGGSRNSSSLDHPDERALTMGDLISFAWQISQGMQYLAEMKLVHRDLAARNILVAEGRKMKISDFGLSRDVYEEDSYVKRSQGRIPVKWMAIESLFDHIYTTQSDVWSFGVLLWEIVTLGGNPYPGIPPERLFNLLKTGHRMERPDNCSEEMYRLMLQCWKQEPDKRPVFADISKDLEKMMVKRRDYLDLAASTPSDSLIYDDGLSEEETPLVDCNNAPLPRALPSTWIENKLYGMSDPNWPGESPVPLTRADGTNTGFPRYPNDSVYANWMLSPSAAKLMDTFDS

ABL1 = ABL1 (Homo sapiens, UniProt P00519); test: HotSpot 10-dose dose-response kinase assay: ABL1; format: biochemical; conditions: read-out: Dose-response IC50 ABL1; 10-dose dose-response, 1 μM ATP
kinases = test: Other kinase assays; format: biochemical; conditions: Figures S10 and S11
EGFR = EGFR (Homo sapiens, UniProt P00533); test: EGFR wild type kinase-domain inhibition assay
[2] = tested on: MCF-7, SW620, SW480, H460, A549, and MDA-MB-231 cell lines; test: GGOH rescue of cell growth inhibition; format: cell-based; conditions: six cell lines, 20 μM GGOH

JAK2, sequence (O60674 whole entry): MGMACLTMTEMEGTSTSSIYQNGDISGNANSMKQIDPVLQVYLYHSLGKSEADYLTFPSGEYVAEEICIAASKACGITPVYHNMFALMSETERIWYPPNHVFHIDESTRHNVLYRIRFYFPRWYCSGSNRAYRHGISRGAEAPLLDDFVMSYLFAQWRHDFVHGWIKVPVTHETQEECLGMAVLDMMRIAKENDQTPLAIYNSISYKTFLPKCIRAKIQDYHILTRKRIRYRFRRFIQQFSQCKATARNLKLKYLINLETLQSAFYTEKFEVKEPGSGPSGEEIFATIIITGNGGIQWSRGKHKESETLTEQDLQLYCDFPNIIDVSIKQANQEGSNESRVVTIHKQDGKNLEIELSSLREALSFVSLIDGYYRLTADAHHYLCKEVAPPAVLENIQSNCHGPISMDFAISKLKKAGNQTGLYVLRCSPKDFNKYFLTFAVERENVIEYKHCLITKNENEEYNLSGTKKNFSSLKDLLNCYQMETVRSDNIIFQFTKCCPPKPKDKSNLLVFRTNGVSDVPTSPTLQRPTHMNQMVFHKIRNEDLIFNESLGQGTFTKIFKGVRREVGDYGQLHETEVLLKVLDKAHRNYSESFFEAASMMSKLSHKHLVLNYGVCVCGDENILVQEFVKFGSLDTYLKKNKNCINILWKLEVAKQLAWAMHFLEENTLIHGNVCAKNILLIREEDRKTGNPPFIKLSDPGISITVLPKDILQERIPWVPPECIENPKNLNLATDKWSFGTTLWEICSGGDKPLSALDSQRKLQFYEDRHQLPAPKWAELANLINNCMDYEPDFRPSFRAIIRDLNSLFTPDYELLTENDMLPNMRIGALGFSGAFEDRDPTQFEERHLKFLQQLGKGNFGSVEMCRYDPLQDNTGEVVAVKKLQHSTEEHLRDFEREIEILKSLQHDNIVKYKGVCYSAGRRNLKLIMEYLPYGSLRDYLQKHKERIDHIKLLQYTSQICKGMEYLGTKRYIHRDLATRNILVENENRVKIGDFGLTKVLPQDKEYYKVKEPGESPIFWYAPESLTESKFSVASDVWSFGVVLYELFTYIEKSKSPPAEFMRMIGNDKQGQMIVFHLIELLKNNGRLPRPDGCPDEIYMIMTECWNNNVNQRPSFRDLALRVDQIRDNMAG

In the case of Nc1ncnc2c1ncn2[C@@H]1O[C@H](COP(=O)(O)OP(=O)(O)OP(=O)(O)O)[C@@H](O)[C@H]1O [ATP], the pKa4 [1] is given as 7.1.
Nc1ncnc2c1ncn2[C@@H]1O[C@H](COP(=O)(O)OP(=O)(O)C(Cl)(Cl)P(=O)(O)O)[C@@H](O)[C@H]1O [compound 4, adenosine 5′-(beta, gamma-dichloro-methylene) diphosphate] gave an IC50 (JAK2) of 13 nM, an IC50 (JAK3) of 5 nM and an IC50 (BRAF) of 6400 nM. For the same compound, the IC50 (EGFR (L858R, T790M)) was 80 nM, the IC50 (EGFR (T790M)) was 270 nM and the IC50 (TYK2) was roughly 230 nM. For the same compound, the IC50 (JAK1) was 66 nM, the IC50 (EGFR (L858R)) was 490 nM and the IC50 (ANT) was roughly 50000 nM. The IC50 (BRAF (V599E)) was 230000 nM, the IC50 (PDGFRa) was 4 nM and the IC50 (EGFR (d746–750)) was 4300 nM. For the same compound, the IC50 (PKCepsilon) was 43 nM, the IC50 (DDR2) was 47 nM and the IC50 (EGFR (G719S)) was 760 nM. The IC50 (RET) was 140 nM and the IC50 (ABL1) was 79 nM.
With Nc1ncnc2c1ncn2C1OC(COP(=O)(O)OP(=O)(O)C(Sc2ccc(Cl)cc2)P(=O)(O)O)C(O)C1O (stereo not shown) [compound 5] the “activity in other kinase assays” value (kinases) was “low activity”.
In the case of O=P(O)(O)C(O)(Cn1ccnc1)P(=O)(O)O [compound 6, zoledronate], the IC50 (EGFR) is reported as 72000 ± 12000 nM.
Compound Nc1ncnc2c1ncn2[C@@H]1O[C@H](COP(=O)(O)OP(=O)(O)C(Br)(Br)P(=O)(O)O)[C@@H](O)[C@H]1O [compound 23] has an IC50 (EGFR (L858R, T790M)) of 16 nM.
With NCCC(O)(P(=O)(O)O)P(=O)(O)O [pamidronate] the “GGOH rescue of growth inhibition” value [2] was “very small rescue effects”.

— publication PMC6022752 (Journal of the American Chemical Society, 2018)
